US12152012B2, “BRAG2 inhibitors and applications thereof” (CENTRE NATIONAL DE LA RECHERCHE SCIENTIFIQUE, priority 2018, dated 2024)
“Also recorded” adds a separate entry of the source.

Columns and labels:
[1] = Stability in aqueous solution / PBS (mass spectroscopy); assay type: physicochemical; conditions: for Chemical stability in aqueous solution: after a few days in aqueous solution; for Stability in PBS by mass spectroscopy: dissolved in PBS, within 72 hours
BRAG2 (BRAG2^Sec7PH) = molecular target: T1, BRAG2 (BRAG2^Sec7PH) (Homo sapiens, UniProt Q6DN90); assay: Nucleotide exchange kinetics on liposomes, activation of myristoylated Arf1; assay type: biochemical
T1 construct: human BRAG2^Sec7 (390-594) and BRAG2^Sec7PH (390-811); made in house
Protocol: (§1) The effect of Bragsin1 on the GEF efficiency of representative human ArfGEFs was evaluated by fluorescence kinetics using highly purified recombinant Arf GTPases and ArfGEFs. In a first series of assays, the Sec7 domains of BIG1, a Golgi ArfGEF, and of ARNO, EFA6a and BRAG2, which function at the plasma membrane, were used. When tested in solution, Bragsin1 had no effect on the activation of Arf1 by any of these Sec7 domains (FIGS. 2a and 14). Separately, we reconstituted the activation of myristoylated Arf1 by the same ArfGEFs on liposomes using ArfGEF constructs that contain a membrane-binding domain (DCB-HUS domain for BIG1, PH domains for the other GEFs). […] BRAG2 activates several Arf isoforms, including the plasma membrane-located Arf6 isoform. […] Bragsin1 and Bragsin2 have the same IC50 towards BRAG2 ([…]) according to dose-response analysis, confirming that Bragsin1 and Bragsin2 can be used interchangeably (FIG. 2d). The specific inhibition of BRAG2 by Bragsin in vitro predicts that BRAG2 silencing by siRNA should yield the same phenotype as treatment by the small molecule. Silencing of BRAG2 induced the redistribution of TGN46 into tubular or punctate structures, which phenocopied the effects induced by Bragsin (FIGS. 2e, 17 and 18). […] Silencing of ARNO, which is located at the plasma membrane, had no effect on TGN46 distribution. Overexpression of BRAG2-mCherry rescued the dispersion of the TGN46 structure induced by Bragsin, which is consistent with the silencing experiments (FIG. 2f). Bragsin is a specific inhibitor of the ArfGEF BRAG2 in vitro and in cells according to these experiments. These oexperiments identify a mechanism of inhibition that requires the membrane to manifests itself.
Bovine Δ17Arf1 and human Δ13Arf6, full-length myristoylated Arf1 and Arf6, human BRAG2^Sec7 (390-594) and BRAG2^Sec7PH (390-811), human EFA6^Sec7 (527-727) and EFA6^Sec7PHCt (527-1024), ARNO^Sec7 (50-256), BIG1^Sec7 (691-889), BIG1^DcbHusSec7 (2-888) and ARNO^Sec7PH (50-399) were expressed and purified as in (Benabdi, S. et al. Family-wide Analysis of the Inhibition of Arf Guanine Nucleotide Exchange Factors with Small Molecules: Evidence of Unique Inhibitory Profiles. Biochemistry 56, 5125-5133 (2017)) and references therein. BRAG2^Sec7PH mutants were purified as the wild type protein. Purification of human full-length Rac1 carrying a 6xHis tag in C-terminus and human TRIO^DH1PH1 (1232-1550) was described in (Peurois, F. et al. Characterization of the activation of small GTPases by their GEFs on membranes using artificial membrane tethering. Biochem J 474, 1259-1272 (2017)).
Lipids (of natural origin) were from Avanti Polar Lipids, except NBD-PE from Sigma. Liposomes were prepared as described in (Aizel, K. et al. Integrated conformational and lipid-sensing regulation of endosomal ArfGEF BRAG2. PLOS Biol 11, e1001652 (2013)) and extruded at 0.2 μm. For the Arf GEF specificity studies, liposomes contained 48% phosphatidylcholine (PC), 20% phosphatidylethanolamine (PE), 30% phosphatidylserine (PS) and 2% phosphatidylinositol-4,5-bisphosphate (PIP2). For Rac activation assay, liposomes contained 43% PC, 20% PE, 10% PS, 20% cholesterol, 2% PIP2, 5% NiNTA lipids and 0.2% NBD-PE. To exclude aggregation or disruption of the liposomes, their size distribution was controlled before and after experiments by dynamic light scattering as described in (Benabdi, S. et al. Biochemistry 56, 5125-5133 (2017)). Dose-response and flotation assays were carried out with liposomes containing 37.9% PC, 20% PE, 20% PS, 2% PIP2, 20% cholesterol and 0.1% NBD-PE. Flotation assays were carried out as in 18.
Nucleotide exchange kinetics were monitored by tryptophan fluorescence with excitation/emission wavelengths of 292/340 nm using a Cary Eclipse fluorimeter (Varian) at 37° C. and under continuous stirring as described in ^50,51. […]

Sec7 domain of ARNO = molecular target: T2, Sec7 domain of ARNO (Homo sapiens, UniProt Q99418); assay: Nucleotide exchange fluorescence kinetics in solution, Sec7 domain with truncated Arf1; assay type: biochemical; conditions: 50 μM, no membranes
T2 construct: ARNO^Sec7 (50-256), BIG1^Sec7 (691-889); made in house
T2 sequence (Q99418 50-256): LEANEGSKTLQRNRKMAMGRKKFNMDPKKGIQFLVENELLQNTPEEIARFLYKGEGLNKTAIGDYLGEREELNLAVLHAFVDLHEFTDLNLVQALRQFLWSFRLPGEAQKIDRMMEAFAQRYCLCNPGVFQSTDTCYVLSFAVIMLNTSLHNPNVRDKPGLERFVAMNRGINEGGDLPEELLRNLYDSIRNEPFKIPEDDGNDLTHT
Protocol: as §1, with “itself. […]” for “itself.”
(§2) Nucleotide exchange kinetics were monitored by tryptophan fluorescence with excitation/emission wavelengths of 292/340 nm using a Cary Eclipse fluorimeter (Varian) at 37° C. and under continuous stirring as described in ^50,51. For specificity assays, 50 μM of Bragsin1 or 0.25% DMSO were incubated for 2 min at 37° C. in HKM buffer (50 mM HEPES pH 7.4, 120 mM potassium acetate, 1 mM MgCl2 and 1 mM DTT) with either 1 μM of N-terminally truncated Arf-GDP and 100 nM of indicated Sec7 domain (in solution) or 0.4 μM of ^myrArf1 in the presence of 100 μM of liposomes and 2 to 100 nM of ArfGEFs as described in (Benabdi, S. et al. Biochemistry 56, 5125-5133 (2017) and Peurois, F. et al. Biochem J 474, 1259-1272 (2017). Nucleotide exchange rates (kobs) were determined from monoexponential fits and means are given as the percentage of control activity±SD. […]

Sec7 domain of EFA6a = molecular target: T3, Sec7 domain of EFA6a (Homo sapiens, UniProt A5PKW4); assay: as above; assay type: biochemical; conditions: 50 μM, no membranes
T3 construct: human EFA6^Sec7 (527-727) and EFA6^Sec7PHCt (527-1024); made in house
Protocol: as §1, with “itself. […]” for “itself.”
as §2

T1 sequence (Q6DN90 512-933): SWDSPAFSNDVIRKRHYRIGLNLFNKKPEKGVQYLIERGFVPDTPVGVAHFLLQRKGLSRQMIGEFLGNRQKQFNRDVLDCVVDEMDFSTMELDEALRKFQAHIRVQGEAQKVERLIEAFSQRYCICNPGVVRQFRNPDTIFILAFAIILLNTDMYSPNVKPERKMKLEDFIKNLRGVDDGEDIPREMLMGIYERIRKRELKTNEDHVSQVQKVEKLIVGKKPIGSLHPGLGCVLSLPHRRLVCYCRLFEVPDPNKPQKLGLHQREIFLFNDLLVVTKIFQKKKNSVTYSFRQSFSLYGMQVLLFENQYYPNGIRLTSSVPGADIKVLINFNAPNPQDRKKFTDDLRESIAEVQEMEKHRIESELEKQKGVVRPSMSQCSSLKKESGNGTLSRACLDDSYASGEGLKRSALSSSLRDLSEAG
T3 sequence (A5PKW4 527-727): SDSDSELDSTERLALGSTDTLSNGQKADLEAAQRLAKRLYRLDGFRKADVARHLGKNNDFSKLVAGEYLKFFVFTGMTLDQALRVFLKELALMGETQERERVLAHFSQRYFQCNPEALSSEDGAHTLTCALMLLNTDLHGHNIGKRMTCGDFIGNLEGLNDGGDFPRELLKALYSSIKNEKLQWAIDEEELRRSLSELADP

Chemical stability in aqueous solution [1] | Stability in PBS by mass spectroscopy [1] | Activity towards BRAG2 after storage (BRAG2 (BRAG2^Sec7PH); stock solution in DMSO kept for several months) | Effect on activation of Arf1 by Sec7 domain in solution (Sec7 domain of ARNO) | Effect on activation of Arf1 by Sec7 domain in solution (Sec7 domain of EFA6a) | Compound | Inhibition of BRAG2 in the presence of liposomes (BRAG2 (BRAG2^Sec7PH); 50 μM compound vs DMSO, myristoylated Arf1, liposomes) | Inhibition of BRAG2 on liposomes that contain PIP2 compared to PS as sole negatively charged lipid (BRAG2 (BRAG2^Sec7PH); lipid composition of liposomes varied)
chemically unstable | slowly decomposed | lost activity | no effect | no effect | Cc1ccc2oc(C(F)(F)F)cc(=O)c2c1[N+](=O)[O-] [Bragsin1, 6-methyl-5-nitro-2-(trifluoromethyl)-4H-chromen-4-one] | strongly inhibited; also recorded: specifically inhibits | 
resistant to hydration and stable | remained stable |  |  |  | COc1ccc2oc(C(F)(F)F)cc(=O)c2c1[N+](=O)[O-] [Bragsin2, 6-methoxy-5-nitro-2-(trifluoromethyl)-4H-chromen-4-one] |  | more efficiently; also recorded: stronger
